Active and inactive are the calls of the source. No cut-off for these calls is given here.
What follows are compounds tested against T1, S-methyl-5'-thioadenosine phosphorylase (Homo sapiens) (UniProt Q13126) (assay: Inhibition of His-tagged human MTAP at 2.5 uM).
T1 sequence (whole entry): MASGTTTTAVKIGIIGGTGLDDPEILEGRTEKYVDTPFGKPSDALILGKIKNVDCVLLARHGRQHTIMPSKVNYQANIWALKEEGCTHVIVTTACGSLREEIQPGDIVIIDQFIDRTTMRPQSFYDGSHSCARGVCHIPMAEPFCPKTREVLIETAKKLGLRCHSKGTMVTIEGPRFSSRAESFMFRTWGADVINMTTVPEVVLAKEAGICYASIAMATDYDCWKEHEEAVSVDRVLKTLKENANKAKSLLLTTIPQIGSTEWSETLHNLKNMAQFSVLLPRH

With `Nc1ncnc2c(CN3C[C@H](c4cn(Cc5ccccc5)nn4)[C@@H](O)C3)c[nH]c12` (racemic) the inhibition was “inactive”.

The compounds below were run against T2, S-methyl-5'-thioadenosine phosphorylase (Homo sapiens, UniProt Q13126) (assay: Inhibition of His-tagged human MTAP).
T2 sequence (Q13126 whole entry): T1 sequence (whole entry)

Going from `CC[C@H]1CN(Cc2c[nH]c3c(N)ncnc23)C[C@@H]1O` to `CC[C@H]1CN(Cc2c[nH]c3c(N)ncnc23)C[C@H]1O` (racemic), the Ki rises from 0.7 nM to 34 nM (49-fold).

`C=CC[C@H]1CN(Cc2c[nH]c3c(N)ncnc23)C[C@@H]1O` (racemic) and `C=C[C@H]1CN(Cc2c[nH]c3c(N)ncnc23)C[C@@H]1O` (racemic) are within 1.5-fold of each other in Ki: 3 nM for the first, 3.2 nM for the second.

`Nc1ncnc2c(CN3C[C@H](C4CC4)[C@@H](O)C3)c[nH]c12` (racemic) and `Nc1ncnc2c(CN3C[C@H](C4CCCC4)[C@@H](O)C3)c[nH]c12` (racemic) are within 1.5-fold of each other in Ki: 2.1 nM for the first, 2.6 nM for the second.

Compared with `C#C[C@H]1CN(Cc2c[nH]c3c(N)ncnc23)C[C@@H]1O` (racemic), `CC(C)C[C@H]1CN(Cc2c[nH]c3c(N)ncnc23)C[C@@H]1O` (racemic) is 18-fold lower in Ki: 31 nM for the first, 1.7 nM for the second.

Going from `Nc1ncnc2c(CN3C[C@H](CC4CCCCC4)[C@@H](O)C3)c[nH]c12` (racemic) to `Nc1ncnc2c(CN3C[C@H](O)[C@@H](n4ccnn4)C3)c[nH]c12` (racemic), the Ki rises from 14 nM to 59 nM (4.2-fold).

First: Nc1ncnc2c(CN3C[C@H](c4ccccc4)[C@@H](O)C3)c[nH]c12 (racemic)
Second: Nc1ncnc2c(CN3C[C@H](CCCSCc4ccccc4)[C@@H](O)C3)c[nH]c12 (racemic)
The Ki of the first is 8.9-fold lower: 8 nM for the first, 71 nM for the second. The first binds more tightly here.

— ChEMBL document CHEMBL1240514, “Design and synthesis of potent "sulfur-free" transition state analogue inhibitors of 5'-methylthioadenosine nucleosidase and 5'-methylthioadenosine phosphorylase” (J Med Chem, 2010)
